We go through 26 compounds from patent publication US12209087B2, “AKT1 modulators” (Alterome Therapeutics, Inc., priority 2022, dated 2025).

By IC50 is commonly meant the concentration that gives 50% inhibition.

The target in the test is T1, full length AKT E17K (Homo sapiens, UniProt P31749, E17K).
T1 construct: host or cells: HEK-293 (ATCC CRL-1573)
T1 sequence (P31749 whole entry E17K): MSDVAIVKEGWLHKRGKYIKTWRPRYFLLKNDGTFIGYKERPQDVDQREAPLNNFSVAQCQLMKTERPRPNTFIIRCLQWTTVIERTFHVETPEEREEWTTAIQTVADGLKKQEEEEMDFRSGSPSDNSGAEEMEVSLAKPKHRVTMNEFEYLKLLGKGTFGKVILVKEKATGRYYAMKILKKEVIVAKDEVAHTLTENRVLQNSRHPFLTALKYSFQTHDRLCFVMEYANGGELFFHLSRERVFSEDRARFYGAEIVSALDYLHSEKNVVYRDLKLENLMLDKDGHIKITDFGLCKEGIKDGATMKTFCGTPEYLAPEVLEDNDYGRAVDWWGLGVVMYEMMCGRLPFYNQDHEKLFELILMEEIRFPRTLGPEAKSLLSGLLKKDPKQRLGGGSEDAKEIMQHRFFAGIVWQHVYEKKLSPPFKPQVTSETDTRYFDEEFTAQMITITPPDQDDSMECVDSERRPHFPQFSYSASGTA
Kind of test: NanoBRET Target Engagement (TE) Assay. The conditions noted are these: competitive displacement of tracer in cells, read-out: AKT1 E17K IC50. Format: cell-based. In short, it runs like this: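 Compound and tracer incubated 2 h before luminescence at donor 450 nm and acceptor 600 nm, with extracellular signal inhibited. EC50 by sigmoidal variable-slope regression.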
Background: Bioluminescence resonance energy transfer reports proximity on the nanometre scale.
In the case of `N#Cc1ccnc(N2C[C@@H]3C[C@H]2CN3Cc2ccc(-n3c(-c4cccnc4N)nc4ccc(-c5ccccc5)nc43)cc2)n1` [Example 377, 2-((1S,4S)-5-(4-(2-(2-Aminopyridin-3-yl)-5-phenyl-3H-imidazo[4,5-b]pyridin-3-yl)benzyl)-2,5-diazabicyclo[2.2.1]heptan-2-yl)pyrimidine-4-carbonitrile], the IC50 was 60 to 600 nM.

For `C[C@@H]1CN(Cc2ccc(-n3c(-c4cccnc4N)nc4ccc(-c5ccccc5)nc43)cc2)C[C@H](C)N1c1ccnc(C#N)n1` [Example 378, 4-((2S,6R)-4-(4-(2-(2-Aminopyridin-3-yl)-5-phenyl-3H-imidazo[4,5-b]pyridin-3-yl)benzyl)-2,6-dimethylpiperazin-1-yl)pyrimidine-2-carbonitrile], the IC50 lay within 60 to 600 nM.

For the compound `C[C@@H]1CN(Cc2ccc(-n3c(-c4cccnc4N)nc4ccc(-c5ccccc5)nc43)cc2)C[C@H](C)N1c1nccc(C#N)n1` [Example 379, 2-((2S,6R)-4-(4-(2-(2-Aminopyridin-3-yl)-5-phenyl-3H-imidazo[4,5-b]pyridin-3-yl)benzyl)-2,6-dimethylpiperazin-1-yl)pyrimidine-4-carbonitrile], the IC50 lay in the range of 600 to 10000 nM.

As to `C[C@@H]1CN(Cc2ccc(-n3c(-c4cccnc4N)nc4ccc(-c5ccccc5)nc43)cc2)C[C@H](C)N1c1cc(C#N)ncn1` [Example 380, 6-((2S,6R)-4-(4-(2-(2-Aminopyridin-3-yl)-5-phenyl-3H-imidazo[4,5-b]pyridin-3-yl)benzyl)-2,6-dimethylpiperazin-1-yl)pyrimidine-4-carbonitrile], the IC50 lay in the range of 600 to 10000 nM.

For `N#Cc1nccc(NC2CCN(Cc3ccc(-n4c(-c5cccnc5N)nc5ccc(-c6ccc[nH]c6=O)nc54)cc3)CC2)n1` [Example 381, 4-((1-(4-(2-(2-Aminopyridin-3-yl)-5-(2-oxo-1,2-dihydropyridin-3-yl)-3H-imidazo[4,5-b]pyridin-3-yl)benzyl)piperidin-4-yl)amino)pyrimidine-2-carbonitrile], the IC50 was less than 15 nM.

As to `N#Cc1ncnc(NC2CCN(Cc3ccc(-n4c(-c5cccnc5N)nc5ccc(-c6ccc(Cl)cc6)nc54)cc3)CC2)n1` [Example 382, 4-((1-(4-(2-(2-Aminopyridin-3-yl)-5-(4-chlorophenyl)-3H-imidazo[4,5-b]pyridin-3-yl)benzyl)piperidin-4-yl)amino)-1,3,5-triazine-2-carbonitrile], the IC50 was 15 to 60 nM.

Turning to `N#Cc1nccc(N2CCN(Cc3ccc(-n4c(-c5cccnc5N)nc5ccc(-c6cnccc6C#N)nc54)cc3)CC2)n1` [Example 383, 4-(4-(4-(2-(2-Aminopyridin-3-yl)-5-(4-cyanopyridin-3-yl)-3H-imidazo[4,5-b]pyridin-3-yl)benzyl)piperazin-1-yl)pyrimidine-2-carbonitrile], the IC50 was less than 15 nM.

For the compound `N#Cc1nccc(NC2CCN(Cc3ccc(-n4c(-c5cccnc5N)nc5ccc(-c6cnccc6C#N)nc54)cc3)CC2)n1` [Example 384, 4-((1-(4-(2-(2-Aminopyridin-3-yl)-5-(4-cyanopyridin-3-yl)-3H-imidazo[4,5-b]pyridin-3-yl)benzyl)piperidin-4-yl)amino)pyrimidine-2-carbonitrile], the IC50 lay in the range of 15 to 60 nM.

For the compound `[2H]C([2H])(c1ccc(-n2c(-c3cccnc3N)nc3cccnc32)cc1)N1CCC(Nc2ccnc(C#N)n2)CC1` [Example 385, 4-((1-((4-(2-(2-Aminopyridin-3-yl)-3H-imidazo[4,5-b]pyridin-3-yl)phenyl)methyl-d2)piperidin-4-yl)amino)pyrimidine-2-carbonitrile], the IC50 was 15 to 60 nM.

As for `CN1CCCN(c2ccc3nc(-c4cccnc4N)n(-c4ccc(CN5CCN(c6ccnc(C#N)n6)CC5)cc4)c3n2)CC1=O` [Example 386, 4-(4-(4-(2-(2-Aminopyridin-3-yl)-5-(4-methyl-3-oxo-1,4-diazepan-1-yl)-3H-imidazo[4,5-b]pyridin-3-yl)benzyl)piperazin-1-yl)pyrimidine-2-carbonitrile], the IC50 is 15 to 60 nM.

On to `N#Cc1nccc(NC2CCN(Cc3ccc(-n4c(-c5cccnc5N)nc5ccc(N6CCOCC6=O)nc54)cc3)CC2)n1` [Example 387, 4-((1-(4-(2-(2-Aminopyridin-3-yl)-5-(3-oxomorpholino)-3H-imidazo[4,5-b]pyridin-3-yl)benzyl)piperidin-4-yl)amino)pyrimidine-2-carbonitrile], for which the half-maximal inhibitory concentration (IC50) lay within 60 to 600 nM.

`N#Cc1nccc(NC2CCN(Cc3ccc(-n4c(-c5cccnc5N)nc5ccc(C6CCCC6)nc54)cc3)CC2)n1` [Example 388, 4-((1-(4-(2-(2-Aminopyridin-3-yl)-5-cyclopentyl-3H-imidazo[4,5-b]pyridin-3-yl)benzyl)piperidin-4-yl)amino)pyrimidine-2-carbonitrile]: the IC50 is less than 15 nM.

For the compound `CN(C)c1ccc2nc(-c3cccnc3N)n(-c3ccc(CN4CCC(Nc5ccnc(C#N)n5)CC4)cc3)c2n1` [Example 389, 4-((1-(4-(2-(2-Aminopyridin-3-yl)-5-(dimethylamino)-3H-imidazo[4,5-b]pyridin-3-yl)benzyl)piperidin-4-yl)amino)pyrimidine-2-carbonitrile], the IC50 is less than 15 nM.

Regarding `CN(c1ccnc(C#N)n1)C1CCN(Cc2ccc(-n3c(-c4cccnc4N)nc4cccnc43)cc2)CC1` [Example 390, 4-((1-(4-(2-(2-Aminopyridin-3-yl)-3H-imidazo[4,5-b]pyridin-3-yl)benzyl)piperidin-4-yl)(methyl)amino)pyrimidine-2-carbonitrile], the IC50 is less than 15 nM.

Take `N#Cc1ncnc(NC2CCN(Cc3ccc(-n4c(-c5cccnc5N)nc5ccc(-c6ccccc6)nc54)cc3)CC2)n1` [Example 391, 4-((1-(4-(2-(2-Aminopyridin-3-yl)-5-phenyl-3H-imidazo[4,5-b]pyridin-3-yl)benzyl)piperidin-4-yl)amino)-1,3,5-triazine-2-carbonitrile]: the IC50 is less than 15 nM.

In the case of `CC1(Nc2ccnc(C#N)n2)CCN(Cc2ccc(-n3c(-c4cccnc4N)nc4cccnc43)cc2)CC1` [Example 392, 4-((1-(4-(2-(2-Aminopyridin-3-yl)-3H-imidazo[4,5-b]pyridin-3-yl)benzyl)-4-methylpiperidin-4-yl)amino)pyrimidine-2-carbonitrile], the IC50 was in the range of 60 to 600 nM.

As to `Cn1c(-c2ccc3nc(-c4cccnc4N)n(-c4ccc(CN5CCC(Nc6ccnc(C#N)n6)CC5)cc4)c3n2)cccc1=O` [Example 393, 4-((1-(4-(2-(2-Aminopyridin-3-yl)-5-(1-methyl-6-oxo-1,6-dihydropyridin-2-yl)-3H-imidazo[4,5-b]pyridin-3-yl)benzyl)piperidin-4-yl)amino)pyrimidine-2-carbonitrile], the IC50 lay in the range of 600 to 10000 nM.

For the compound `Cn1c(-c2ccc3nc(-c4cccnc4N)n(-c4ccc(CN5CCN(c6ccnc(C#N)n6)CC5)cc4)c3n2)cccc1=O` [Example 394, 4-(4-(4-(2-(2-Aminopyridin-3-yl)-5-(1-methyl-6-oxo-1,6-dihydropyridin-2-yl)-3H-imidazo[4,5-b]pyridin-3-yl)benzyl)piperazin-1-yl)pyrimidine-2-carbonitrile], the IC50 lay within 600 to 10000 nM.

With `COc1cccc(-c2ccc3nc(-c4cccnc4N)n(-c4ccc(CN5CCC(Nc6ccnc(C#N)n6)CC5)cc4)c3n2)c1` [Example 395, 4-((1-(4-(2-(2-Aminopyridin-3-yl)-5-(3-methoxyphenyl)-3H-imidazo[4,5-b]pyridin-3-yl)benzyl)piperidin-4-yl)amino)pyrimidine-2-carbonitrile], the IC50 is less than 15 nM.

As to `CC(C)(C)c1ccc2nc(-c3cccnc3N)n(-c3ccc(CN4CCC(Nc5ccnc(C#N)n5)CC4)cc3)c2n1` [Example 396, 4-((1-(4-(2-(2-Aminopyridin-3-yl)-5-(tert-butyl)-3H-imidazo[4,5-b]pyridin-3-yl)benzyl)piperidin-4-yl)amino)pyrimidine-2-carbonitrile], the half-maximal inhibitory concentration (IC50) is 15 to 60 nM.

`CCc1ccc2nc(-c3cccnc3N)n(-c3ccc(CN4CCC(Nc5ccnc(C#N)n5)CC4)cc3)c2n1` [Example 397, 4-((1-(4-(2-(2-Aminopyridin-3-yl)-5-ethyl-3H-imidazo[4,5-b]pyridin-3-yl)benzyl)piperidin-4-yl)amino)pyrimidine-2-carbonitrile]: the concentration for half-maximal inhibition (IC50) is less than 15 nM.

Turning to `CNC(=O)c1ccc2nc(-c3cccnc3N)n(-c3ccc(CN4CCC(Nc5ccnc(C#N)n5)CC4)cc3)c2n1` [Example 398, 2-(2-Aminopyridin-3-yl)-3-(4-((4-((2-cyanopyrimidin-4-yl)amino)piperidin-1-yl)methyl)phenyl)-N-methyl-3H-imidazo[4,5-h]pyridine-5-carboxamide], the IC50 is less than 15 nM.

`N#Cc1nccc(N2CCN(Cc3ccc(-n4c(-c5cccnc5N)nc5ccc(-c6ccncc6C#N)nc54)cc3)CC2)n1` [Example 399, 4-(4-(4-(2-(2-Aminopyridin-3-yl)-5-(3-cyanopyridin-4-yl)-3H-imidazo[4,5-b]pyridin-3-yl)benzyl)piperazin-1-yl)pyrimidine-2-carbonitrile]: the IC50 fell in the range of 15 to 60 nM.

Regarding `N#Cc1nccc(NC2CCN(Cc3ccc(-n4c(-c5cccnc5N)nc5ccc(-c6ccncc6C#N)nc54)cc3)CC2)n1` [Example 400, 4-((1-(4-(2-(2-Aminopyridin-3-yl)-5-(3-cyanopyridin-4-yl)-3H-imidazo[4,5-b]pyridin-3-yl)benzyl)piperidin-4-yl)amino)pyrimidine-2-carbonitrile], the IC50 was less than 15 nM.

Take `N#Cc1nccc(NC2CCN(Cc3ccc(-n4c(-c5cccnc5N)nc5ccc(F)nc54)cc3)CC2)n1` [Example 401, 4-((1-(4-(2-(2-Aminopyridin-3-yl)-5-fluoro-3H-imidazo[4,5-b]pyridin-3-yl)benzyl)piperidin-4-yl)amino)pyrimidine-2-carbonitrile]: the IC50 was 15 to 60 nM.

Consider `N#Cc1nccc(NC2CCN(Cc3ccc(-n4c(-c5cccnc5N)nc5cc(F)cnc54)cc3)CC2)n1` [Example 402, 4-((1-(4-(2-(2-Aminopyridin-3-yl)-6-fluoro-3H-imidazo[4,5-b]pyridin-3-yl)benzyl)piperidin-4-yl)amino)pyrimidine-2-carbonitrile], for which the IC50 was less than 15 nM.
